Patent publication US20240398813A1, “PHARMACEUTICAL COMPOSITION FOR PREVENTING OR TREATING OVERACTIVE BLADDER” (GWANGJU INSTITUTE OF SCIENCE AND TECHNOLOGY, priority 2021, published 2024)

Assays:
[1] = system: Spontaneously hypertensive rats (SHR); assay: In vivo model of OAB: urination in spontaneously hypertensive rats after oral administration; set-up: species or system rat
Procedure: Male rats with body weights of 300 to 350 g were deprived of food and water overnight before the experiment, and then were randomly divided into a drug administration group and a control group. All animals were provided free access to water for 2 hours, and then 10 mL/kg of vehicle solution [DMSO:PEG400:distilled water=5:40:55 (v/v)] as a test substance were orally administered. After oral administration of the test substance, the rats were placed in a metabolic cage and the number of urinations and urine volume were measured for 3 hours.
The in vivo treatment effects of the compounds for […] were investigated in spontaneously hypertensive rats (SHR) with OAB symptoms after oral administration. Wistar-Kyoto rats (WKY) were used as the healthy animal control, and urination frequency was increased more than 2.8 times in SHR compared to WKY. Compound 208 reduced the urination frequency in SHR (50 mg/kg) by 33%, which is quite close to the urination frequency of the normal group (see FIG. 18).

[2] = biological target: T1, hyperactive mutant BKCa channels (hSlo G803D/N806K) stably expressed in AD 293 cells (Homo sapiens, UniProt Q12791, G856D/N859K); assay: Cell-based fluorescence assay (FluxOR Potassium Ion Channel Assay) of BKCa channel activation; settings: fit of dose-response curve of initial rates; read-out: Apparent EC50 based on vi
T1 construct: expressed in transfected cells
Procedure: AD 293 cells, which are derivatives of the commonly used HEK 293 cell line and stably express hyperactive mutant BKCa channels (hSlo G803D/N806K) to sensitively detect the effect (Lee et al., 2013), were cultured in Dulbecco' modified Eagle medium (Hyclone, Logan, Utah, […]) supplemented with 10% fetal bovine serum, and selected with 1 mg/mL Geneticin (Gibco, Amarillo, TX, USA). 20,000 cells per well were seeded on a 96-well clear-bottom black plate (Corning, New York, NY, USA) coated with poly-D-lysine (Gibco). BKCa channel activity was measured using the cell-based fluorescence assay, FluxOR Potassium Ion Channel Assay (Thermo Fisher Scientific, Waltham, MA, USA). Experimental procedures were performed according to the manufacturer's instructions. The cells were treated with test compounds dissolved in assay buffer for 15 minutes. Fluorescence was measured using a FlexStation3 multimode microplate reader (Molecular Devices, Silicon Valley, CA, USA) and SoftMax Pro (Molecular Devices). Excitation and emission wavelengths were set to 485 nm and 528 nm, respectively. Fluorescence signals were acquired every 2 seconds for 120 seconds and normalized by the relative fluorescence unit (RFU). The efficacy of a channel activator was determined by analyzing changes (ΔRFU) in the RFU for 80 seconds after channel stimulation.
Activation effects of the synthesized compounds on BKCa channels were evaluated using cell-based fluorescence assay. NS11021 was used as the positive control. The effects were determined based on the initial rate (vi) of channel activation and the apparent EC50 value obtained from fitting data of the dose-response curve. Here, Vi means change values for 4 seconds at the start of channel opening (vi={RFU(t=24 s)−RFU(t=20 s)}/4 s). […]

T1 sequence (Q12791 whole entry G856D/N859K): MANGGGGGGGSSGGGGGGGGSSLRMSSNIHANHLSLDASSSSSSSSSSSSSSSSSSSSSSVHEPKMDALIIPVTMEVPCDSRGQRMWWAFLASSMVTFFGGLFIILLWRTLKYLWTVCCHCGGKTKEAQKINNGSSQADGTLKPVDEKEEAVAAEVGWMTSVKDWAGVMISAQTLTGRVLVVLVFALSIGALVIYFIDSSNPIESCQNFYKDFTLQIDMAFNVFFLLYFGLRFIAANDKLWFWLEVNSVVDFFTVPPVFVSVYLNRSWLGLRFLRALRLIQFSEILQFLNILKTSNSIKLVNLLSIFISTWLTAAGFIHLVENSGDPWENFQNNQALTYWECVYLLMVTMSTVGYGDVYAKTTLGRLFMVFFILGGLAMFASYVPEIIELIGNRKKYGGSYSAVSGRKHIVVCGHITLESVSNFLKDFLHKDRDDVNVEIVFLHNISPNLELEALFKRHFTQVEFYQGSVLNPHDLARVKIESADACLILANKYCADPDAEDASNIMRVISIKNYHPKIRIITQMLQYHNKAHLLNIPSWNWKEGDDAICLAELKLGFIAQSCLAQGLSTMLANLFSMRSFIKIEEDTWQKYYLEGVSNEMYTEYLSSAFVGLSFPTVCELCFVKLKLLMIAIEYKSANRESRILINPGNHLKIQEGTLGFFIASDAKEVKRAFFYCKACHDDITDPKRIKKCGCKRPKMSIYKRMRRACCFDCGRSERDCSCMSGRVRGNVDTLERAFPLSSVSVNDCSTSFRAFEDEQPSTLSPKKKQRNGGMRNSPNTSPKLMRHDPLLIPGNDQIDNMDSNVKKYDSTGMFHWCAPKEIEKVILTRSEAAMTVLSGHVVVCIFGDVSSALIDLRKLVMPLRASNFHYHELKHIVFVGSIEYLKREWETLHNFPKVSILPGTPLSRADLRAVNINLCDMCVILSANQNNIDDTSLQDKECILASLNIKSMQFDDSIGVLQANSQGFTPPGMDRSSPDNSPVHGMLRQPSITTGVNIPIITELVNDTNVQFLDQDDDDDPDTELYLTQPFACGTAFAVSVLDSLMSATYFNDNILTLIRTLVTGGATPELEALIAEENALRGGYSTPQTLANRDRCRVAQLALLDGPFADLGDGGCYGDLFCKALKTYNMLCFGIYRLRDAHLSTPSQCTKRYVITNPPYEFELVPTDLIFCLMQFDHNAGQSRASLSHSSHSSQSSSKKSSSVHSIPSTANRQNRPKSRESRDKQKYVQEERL

Row | SMILES | number of urinations ([1]; 5 mg/kg oral, 3 hours, SHR vehicle 8.2) | EC50 [2] [nM] | reduction of urination frequency ([1]; 50 mg/kg oral) [%]
1 | O=C(O[C@H]1CN2CCC1CC2)N1CCc2ccccc2[C@@H]1c1ccccc1 [solifenacin succinate, reference compound] | 4.2 | – | –
2 | O=C(Nc1cccc(C(F)(F)F)c1)c1sc(=S)n2c1[nH]c(=O)c1cc(Br)ccc12 [Compound 208, 7-bromo-5-oxo-1-thioxo-N-(3-(trifluoromethyl)phenyl)-4,5-dihydro-1H-thiazolo[3,4-a]quinazoline-3-carboxamide] | – | 2890 | 33
